Publication PMC7076352 (Pharmaceutics, 2020)
“And” between values parts separate entries of the source, which are not always exact repeats. Equal entries are not always repeated. Where two headings read alike, the source gives them in different places.

Experiments:
CYP3A4 [1] = test: in vitro; conditions: for IC50: microsomes
Outline: (§1)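 Probe substrates were pooled in a single microsomal incubation, with each substrate concentration optimized to keep metabolite formation linear. Metabolites were quantified against isotope-labelled internal standards: hydroxybupropion-[D6] (OHBUP-[D6]) and 5 nM 4′-hydroxydiclofenac-[^13C6] (OHDIC-[^13C6]).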

CYP2C9 [2] = test: in vitro; conditions: microsomes
Outline: as §1

CYP2D6 [3] = test: in vitro; conditions: for IC50: microsomes
Outline: as §1

CYP2B6 [4] = test: in vitro; conditions: microsomes
Outline: as §1

CYP2C19 [5] = test: in vitro; conditions: for IC50: microsomes
Outline: as §1

CYP1A2 [6] = molecular target: T1, CYP1A2 (Rattus norvegicus, UniProt P04799); test: In vitro cocktail CYP450 activity assay in rat liver microsomes, CYP1A2 (phenacetin probe)
T1 sequence (P04799 1-513): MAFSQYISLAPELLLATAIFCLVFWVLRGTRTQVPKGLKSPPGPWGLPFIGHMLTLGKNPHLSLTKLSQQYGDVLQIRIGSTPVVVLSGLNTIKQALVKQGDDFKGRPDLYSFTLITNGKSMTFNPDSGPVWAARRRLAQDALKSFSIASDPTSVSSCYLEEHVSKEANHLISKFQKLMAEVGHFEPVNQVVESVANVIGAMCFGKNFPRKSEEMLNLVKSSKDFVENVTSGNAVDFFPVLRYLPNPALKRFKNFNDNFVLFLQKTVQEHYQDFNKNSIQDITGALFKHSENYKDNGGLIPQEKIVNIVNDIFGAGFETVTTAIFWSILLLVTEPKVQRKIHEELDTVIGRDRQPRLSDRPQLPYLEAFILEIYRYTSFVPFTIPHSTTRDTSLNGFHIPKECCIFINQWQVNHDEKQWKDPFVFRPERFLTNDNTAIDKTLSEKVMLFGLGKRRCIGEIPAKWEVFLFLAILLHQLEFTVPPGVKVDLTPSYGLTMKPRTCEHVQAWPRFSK
Outline: as §1

CYP2E1 [7] = molecular target: T2, CYP2E1 (Rattus norvegicus, UniProt P05182); conditions: microsomes
CYP450s = test: In vitro cocktail CYP450 activity assay, isozyme not given; assay type: in vitro ADME, SD rat
Description: (§2) (OHBUP-[D6]) and 5 nM 4′-hydroxydiclofenac-[^13C6] (OHDIC-[^13C6]) as internal standards (ISs).

CYP2E1 [8] = molecular target: T2, CYP2E1; conditions: IC50 CYP2E1, single components; RLM 0.2 mg/mL, 15 min, triplicate, mean ± SD
[9] = test system: CYP450s (isozyme not named); test: In vitro cocktail CYP450 activity assay, isozyme not given; assay type: in vitro ADME, SD rat; conditions: Sprague-Dawley, rat, pH 7.4
Description: as §2

CYP2D6 [10] = conditions: read-out: Reported Km; probe substrate DEX, CYP2D6, literature range ref 9; cited from earlier work
CYP1A2 [11] = molecular target: T1, CYP1A2; conditions: cited from earlier work
CYP3A4 [12] = conditions: cited from earlier work
CYP2C19 [13] = conditions: read-out: Reported Km; probe substrate OME, CYP2C19, literature range ref 9; cited from earlier work
CYP2C9 [14] = conditions: read-out: Reported IC50; positive inhibitor of CYP2C9, literature ref 17,18; cited from earlier work
CYP2B6 [15] = conditions: positive inhibitor of CYP2B6, literature ref 12,13; read-out: Reported IC50; cited from earlier work
not read = substrate: CCOc1ccc(NC(C)=O)cc1; test: not read; conditions: other: probe substrate, PHE to dEtPHE, CYP1A2, n = 3; pH 7.4; 37.0 °C

T2 sequence (P05182 whole entry): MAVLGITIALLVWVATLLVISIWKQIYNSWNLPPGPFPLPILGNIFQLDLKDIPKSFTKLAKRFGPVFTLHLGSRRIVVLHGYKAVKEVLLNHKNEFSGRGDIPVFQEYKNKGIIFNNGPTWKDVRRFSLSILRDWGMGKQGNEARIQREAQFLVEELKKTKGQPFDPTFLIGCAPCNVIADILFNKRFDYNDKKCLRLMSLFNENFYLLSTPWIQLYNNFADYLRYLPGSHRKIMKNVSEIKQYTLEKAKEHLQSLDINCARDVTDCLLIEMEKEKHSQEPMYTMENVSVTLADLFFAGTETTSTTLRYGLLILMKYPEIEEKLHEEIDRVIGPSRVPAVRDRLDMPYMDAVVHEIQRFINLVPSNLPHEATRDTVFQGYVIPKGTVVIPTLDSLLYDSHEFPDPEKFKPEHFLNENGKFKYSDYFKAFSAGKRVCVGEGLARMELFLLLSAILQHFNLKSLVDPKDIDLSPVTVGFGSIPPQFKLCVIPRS

## O=c1c(O[C@@H]2O[C@H](CO)[C@@H](O)[C@H](O)[C@H]2O)c(-c2ccc(O)cc2)oc2cc(O)c(O[C@@H]3O[C@H](CO)[C@@H](O)[C@H](O)[C@H]3O)c(O)c12 [A13, 6-hydroxykaempferol-3,6-di-O-glucoside]
CYP3A4 [1]
  IC50: 58.5 ± 0.66 µM
CYP2C9 [2]
  IC50: 93 ± 2.56 µM
CYP2D6 [3]
  IC50: 37.1 ± 8.85 µM
CYP2B6 [4]
  IC50: 21 ± 2.31 µM
CYP2C19 [5]
  IC50: 48.9 ± 4.36 µM
CYP1A2 [6]; microsomes
  IC50: 13.3 ± 2.27 µM
CYP2E1 [7]
  IC50: 10.2 ± 0.65 µM
CYP450s
  IC50: ≤ 15 µM

## O=c1c(O)c(-c2ccc(O)c(O)c2)oc2cc(O)cc(O)c12 [A16, quercetin]
CYP3A4 [1]; Sprague-Dawley, rat, pH 7.4
  IC50: […]
CYP2C9 [2]; Sprague-Dawley, rat, pH 7.4
  IC50: 13.5 ± 2.41 µM
CYP2D6 [3]; Sprague-Dawley, rat, pH 7.4
  IC50: 31.1 ± 3.91 µM
CYP2B6 [4]; Sprague-Dawley, rat, pH 7.4
  IC50: 68.5 ± 9.88 µM
CYP2C19 [5]; Sprague-Dawley, rat, pH 7.4
  IC50: 46.4 ± 7.05 µM
CYP2E1 [8]
  IC50: 20.3 ± 4.13 µM
[9]
  IC50: ≤ 15 µM

## COc1ccc2c(c1)[C@]13CCCC[C@@H]1[C@H](C2)N(C)CC3 [DEX, dextromethorphan, reference compound]
CYP2D6 [3]; SD, rat, pH 7.4
  Km: 0.62 ± 0.08 µM
CYP2D6 [10]
  Km: 0.44 to 8.5 µM

## Cc1nc2c([nH]1)c(=O)n(C)c(=O)n2Cc1ccco1 [FUR, furafylline]
CYP1A2 [6]; Tested IC50
  IC50: 0.597 ± 0.0514 µM
CYP1A2 [11]; read-out: Reported IC50, positive inhibitor of CYP1A2, literature ref 9, 10,11
  IC50: 1.3 µM and 1.76 to 13.9 µM

## Cc1ncc2n1-c1ccc(Cl)cc1C(c1ccccc1F)=NC2 [MID, midazolam, reference compound]
CYP3A4 [1]; SD, rat, pH 7.4
  Km: 11 ± 1.51 µM
CYP3A4 [12]; read-out: Reported Km, probe substrate MID, CYP3A4, literature range ref 9
  Km: 1 to 14 µM

## COc1ccc2[nH]c([S+]([O-])Cc3ncc(C)c(OC)c3C)nc2c1 (stereo not shown) [OME, omeprazole, reference compound]
CYP2C19 [5]; SD, rat, pooled rat liver microsomes, pH 7.4, probe omeprazole
  Km at 15 min: 7.8 ± 1.65 µM
CYP2C19 [13]
  Km: 17 to 26 µM

## CCOc1ccc(NC(C)=O)cc1 [PHE, phenacetin]
CYP1A2 [11]; read-out: Reported Km, probe substrate PHE, CYP1A2, literature range ref 9
  Km: 1.7 to 152 µM

## S=P(N1CC1)(N1CC1)N1CC1 [TRI, triethylenethiophosphoramide, reference compound]
CYP2B6 [4]
  IC50: 0.75 ± 0.0262 µM
CYP2B6 [15]
  IC50: 1.75 to 26 µM

B1: CYP1A2 (Rattus norvegicus) (protein)
chain: MAFSQYISLAPELLLATAIFCLVFWVLRGTRTQVPKGLKSPPGPWGLPFIGHMLTLGKNPHLSLTKLSQQYGDVLQIRIGSTPVVVLSGLNTIKQALVKQGDDFKGRPDLYSFTLITNGKSMTFNPDSGPVWAARRRLAQDALKSFSIASDPTSVSSCYLEEHVSKEANHLISKFQKLMAEVGHFEPVNQVVESVANVIGAMCFGKNFPRKSEEMLNLVKSSKDFVENVTSGNAVDFFPVLRYLPNPALKRFKNFNDNFVLFLQKTVQEHYQDFNKNSIQDITGALFKHSENYKDNGGLIPQEKIVNIVNDIFGAGFETVTTAIFWSILLLVTEPKVQRKIHEELDTVIGRDRQPRLSDRPQLPYLEAFILEIYRYTSFVPFTIPHSTTRDTSLNGFHIPKECCIFINQWQVNHDEKQWKDPFVFRPERFLTNDNTAIDKTLSEKVMLFGLGKRRCIGEIPAKWEVFLFLAILLHQLEFTVPPGVKVDLTPSYGLTMKPRTCEHVQAWPRFSK
Not read
  Km: 65.26 ± 14.35 µM
